Values after ≈ are worked out from the molar mass of the structure shown.
How the values were obtained:
Assay type in all cases: functional
[1] = system: Fusarium sp.; test: Antifungal activity against Fusarium sp. clinical isolates after 48 hrs by broth microdilution method
[2] = system: Aspergillus versicolor; test: Antifungal activity against Aspergillus versicolor species complex clinical isolates after 48 hrs by broth microdilution method
[3] = system: Aspergillus flavus; test: Antifungal activity against Aspergillus flavus species complex clinical isolates after 48 hrs by broth microdilution method
[4] = system: Fusarium verticillioides; test: Antifungal activity against Fusarium moniliforme species complex clinical isolates after 48 hrs by broth microdilution method
[5] = system: Aspergillus oryzae; test: Antifungal activity against Aspergillus oryzae species complex clinical isolates after 48 hrs by broth microdilution method
[6] = system: Fusarium avenaceum; test: Antifungal activity against Fusarium avenaceum species complex clinical isolates after 48 hrs by broth microdilution method
[7] = system: Aspergillus nidulans; test: Antifungal activity against Aspergillus nidulans clinical isolates after 48 hrs by broth microdilution method
[8] = system: Aspergillus ochraceus; test: Antifungal activity against Aspergillus ochraceus clinical isolates after 48 hrs by broth microdilution method
[9] = system: Fusarium solani; test: Antifungal activity against Fusarium solani species complex clinical isolates after 48 hrs by broth microdilution method
[10] = Antifungal activity against Fusarium lateritium clinical isolates after 48 hrs by broth microdilution method
[11] = system: Aspergillus wentii; test: Antifungal activity against Aspergillus wentii clinical isolates after 48 hrs by broth microdilution method
[12] = Antifungal activity against Fusarium poae clinical isolates after 48 hrs by broth microdilution method
[13] = system: Fusarium oxysporum; test: Antifungal activity against Fusarium oxysporum clinical isolates after 48 hrs by broth microdilution method
[14] = system: Aspergillus fumigatus; test: Antifungal activity against Aspergillus fumigatus species complex clinical isolates after 48 hrs by broth microdilution method
[15] = system: Aspergillus niger; test: Antifungal activity against Aspergillus niger clinical isolates after 48 hrs by broth microdilution method
[16] = system: Aspergillus sp.; test: Antifungal activity against Aspergillus sp. clinical isolates after 48 hrs by broth microdilution method
[17] = system: Aspergillus candidus; test: Antifungal activity against Aspergillus candidus clinical isolates after 48 hrs by broth microdilution method
[18] = system: Alternaria alternata; test: Antifungal activity against Alternaria alternata clinical isolates after 48 hrs by broth microdilution method
[19] = Fusarium sp., 48 h, read-out: MIC90

Compound: CC[C@@H]([C@H](C)O)n1ncn(-c2ccc(N3CCN(c4ccc(OC[C@@H]5CO[C@@](Cn6cncn6)(c6ccc(F)cc6F)C5)cc4)CC3)cc2)c1=O [POSACONAZOLE]
- MIC90 [1, 19]: > 8 µg/mL

Compound: CN(C/C=C/C#CC(C)(C)C)Cc1cccc2ccccc12 [TERBINAFINE]
- MIC90 [1, 19]: 8 µg/mL (≈ 27.5 µM)

Compound: C[C@@H]1C/C=C/C=C/C=C/C=C/[C@H](O[C@@H]2O[C@H](C)[C@@H](O)[C@H](N)[C@@H]2O)C[C@@H]2O[C@](O)(C[C@@H](O)C[C@H]3O[C@@H]3/C=C/C(=O)O1)C[C@H](O)[C@H]2C(=O)O [NATAMYCIN]
- MIC [2]: 8 µg/mL (≈ 12 µM)
- MIC50 [2]: 8 µg/mL (≈ 12 µM)
- MIC90 [2]: 32 µg/mL (≈ 48.1 µM)
- MIC [3]: 32 µg/mL (≈ 48.1 µM)
- MIC50 [3]: 32 µg/mL (≈ 48.1 µM)
- MIC90 [3]: 32 µg/mL (≈ 48.1 µM)
- MIC [4]: 4 µg/mL (≈ 6.01 µM)
- MIC50 [4]: 4 µg/mL (≈ 6.01 µM)
- MIC90 [4]: 8 µg/mL (≈ 12 µM)
- MIC90 [1]: 16 µg/mL (≈ 24 µM)
- MIC ([1]; Fusarium sp., 48 h): 4 µg/mL (≈ 6.01 µM)
- MIC50 ([1]; Fusarium sp., 48 h): 4 µg/mL (≈ 6.01 µM)
- MIC90 [1, 19]: 8 µg/mL (≈ 12 µM)
- MIC [5]: 32 µg/mL (≈ 48.1 µM)
- MIC50 [5]: 32 µg/mL (≈ 48.1 µM)
- MIC90 [5]: 32 µg/mL (≈ 48.1 µM)
- MIC [6]: 8 µg/mL (≈ 12 µM)
- MIC50 [6]: 8 µg/mL (≈ 12 µM)
- MIC90 [6]: 8 µg/mL (≈ 12 µM)
- MIC [7]: 4 µg/mL (≈ 6.01 µM)
- MIC50 [7]: 4 µg/mL (≈ 6.01 µM)
- MIC90 [7]: 32 µg/mL (≈ 48.1 µM)
- MIC [8]: 4 µg/mL (≈ 6.01 µM)
- MIC50 [8]: 4 µg/mL (≈ 6.01 µM)
- MIC90 [8]: 32 µg/mL (≈ 48.1 µM)
- MIC [9]: 4 µg/mL (≈ 6.01 µM)
- MIC50 [9]: 4 µg/mL (≈ 6.01 µM)
- MIC90 [9]: 8 µg/mL (≈ 12 µM)
- MIC50 [10]: 4 µg/mL (≈ 6.01 µM)
- MIC90 [10]: 8 µg/mL (≈ 12 µM)
- MIC [11]: 4 µg/mL (≈ 6.01 µM)
- MIC50 [11]: 4 µg/mL (≈ 6.01 µM)
- MIC90 [11]: 32 µg/mL (≈ 48.1 µM)
- MIC50 [12]: 4 µg/mL (≈ 6.01 µM)
- MIC90 [12]: 8 µg/mL (≈ 12 µM)
- MIC [13]: 4 µg/mL (≈ 6.01 µM)
- MIC50 [13]: 4 µg/mL (≈ 6.01 µM)
- MIC90 [13]: 8 µg/mL (≈ 12 µM)
- MIC [14]: 4 µg/mL (≈ 6.01 µM)
- MIC50 [14]: 4 µg/mL (≈ 6.01 µM)
- MIC90 [14]: 4 µg/mL (≈ 6.01 µM)
- MIC [15]: 4 µg/mL (≈ 6.01 µM)
- MIC50 [15]: 4 µg/mL (≈ 6.01 µM)
- MIC90 [15]: 32 µg/mL (≈ 48.1 µM)
- MIC [16]: 32 µg/mL (≈ 48.1 µM)
- MIC50 [16]: 32 µg/mL (≈ 48.1 µM)
- MIC90 [16]: 32 µg/mL (≈ 48.1 µM)
- MIC [17]: 4 µg/mL (≈ 6.01 µM)
- MIC50 [17]: 4 µg/mL (≈ 6.01 µM)
- MIC90 [17]: 32 µg/mL (≈ 48.1 µM)
- MIC [18]: 4 µg/mL (≈ 6.01 µM)
- MIC50 [18]: 4 µg/mL (≈ 6.01 µM)
- MIC90 [18]: 4 µg/mL (≈ 6.01 µM)

Compound: OC(Cn1cncn1)(Cn1cncn1)c1ccc(F)cc1F [FLUCONAZOLE]
- MIC90 [1, 19]: > 256 µg/mL

Compound: CC[C@H](C)C[C@H](C)CCCCCCCCC(=O)N[C@H]1C[C@@H](O)[C@@H](NCCN)NC(=O)[C@@H]2[C@@H](O)CCN2C(=O)[C@H]([C@H](O)CCN)NC(=O)[C@H]([C@H](O)[C@@H](O)c2ccc(O)cc2)NC(=O)[C@@H]2C[C@@H](O)CN2C(=O)[C@H]([C@@H](C)O)NC1=O [CASPOFUNGIN]
- MIC90 [1, 19]: > 16 µg/mL

Compound: C[C@@H]1[C@H](O)[C@@H](C)/C=C/C=C/C=C/C=C/C=C/C=C/C=C/[C@H](O[C@@H]2O[C@H](C)[C@@H](O)[C@H](N)[C@@H]2O)C[C@@H]2O[C@](O)(C[C@@H](O)C[C@@H](O)[C@H](O)CC[C@@H](O)C[C@@H](O)CC(=O)O[C@H]1C)C[C@H](O)[C@H]2C(=O)O [AMPHOTERICIN B]
- MIC [2]: 1 µg/mL (≈ 1.08 µM)
- MIC50 [2]: 1 µg/mL (≈ 1.08 µM)
- MIC90 [2]: 2 µg/mL (≈ 2.16 µM)
- MIC [3]: 2 µg/mL (≈ 2.16 µM)
- MIC50 [3]: 2 µg/mL (≈ 2.16 µM)
- MIC90 [3]: 2 µg/mL (≈ 2.16 µM)
- MIC [4]: 2 µg/mL (≈ 2.16 µM)
- MIC50 [4]: 2 µg/mL (≈ 2.16 µM)
- MIC90 [4]: 2 µg/mL (≈ 2.16 µM)
- MIC90 [1]: 2 µg/mL (≈ 2.16 µM)
- MIC ([1]; Fusarium sp., 48 h): 1 µg/mL (≈ 1.08 µM)
- MIC50 ([1]; Fusarium sp., 48 h): 1 µg/mL (≈ 1.08 µM)
- MIC90 [1, 19]: 2 µg/mL (≈ 2.16 µM)
- MIC [5]: 1 µg/mL (≈ 1.08 µM)
- MIC50 [5]: 1 µg/mL (≈ 1.08 µM)
- MIC90 [5]: 2 µg/mL (≈ 2.16 µM)
- MIC [6]: 2 µg/mL (≈ 2.16 µM)
- MIC50 [6]: 2 µg/mL (≈ 2.16 µM)
- MIC90 [6]: 4 µg/mL (≈ 4.33 µM)
- MIC [7]: 1 µg/mL (≈ 1.08 µM)
- MIC50 [7]: 1 µg/mL (≈ 1.08 µM)
- MIC90 [7]: 2 µg/mL (≈ 2.16 µM)
- MIC [8]: 1 µg/mL (≈ 1.08 µM)
- MIC50 [8]: 1 µg/mL (≈ 1.08 µM)
- MIC90 [8]: 2 µg/mL (≈ 2.16 µM)
- MIC [9]: 1 µg/mL (≈ 1.08 µM)
- MIC50 [9]: 1 µg/mL (≈ 1.08 µM)
- MIC90 [9]: 2 µg/mL (≈ 2.16 µM)
- MIC50 [10]: 1 µg/mL (≈ 1.08 µM)
- MIC90 [10]: 2 µg/mL (≈ 2.16 µM)
- MIC [11]: 1 µg/mL (≈ 1.08 µM)
- MIC50 [11]: 1 µg/mL (≈ 1.08 µM)
- MIC90 [11]: 2 µg/mL (≈ 2.16 µM)
- MIC50 [12]: 1 µg/mL (≈ 1.08 µM)
- MIC90 [12]: 2 µg/mL (≈ 2.16 µM)
- MIC [13]: 1 µg/mL (≈ 1.08 µM)
- MIC50 [13]: 1 µg/mL (≈ 1.08 µM)
- MIC90 [13]: 2 µg/mL (≈ 2.16 µM)
- MIC [14]: 1 µg/mL (≈ 1.08 µM)
- MIC50 [14]: 1 µg/mL (≈ 1.08 µM)
- MIC90 [14]: 2 µg/mL (≈ 2.16 µM)
- MIC [15]: 1 µg/mL (≈ 1.08 µM)
- MIC50 [15]: 1 µg/mL (≈ 1.08 µM)
- MIC90 [15]: 2 µg/mL (≈ 2.16 µM)
- MIC [16]: 1 µg/mL (≈ 1.08 µM)
- MIC50 [16]: 1 µg/mL (≈ 1.08 µM)
- MIC90 [16]: 2 µg/mL (≈ 2.16 µM)
- MIC [17]: 1 µg/mL (≈ 1.08 µM)
- MIC50 [17]: 1 µg/mL (≈ 1.08 µM)
- MIC90 [17]: 2 µg/mL (≈ 2.16 µM)
- MIC [18]: 0.125 µg/mL (≈ 0.135 µM)
- MIC50 [18]: 0.125 µg/mL (≈ 0.135 µM)
- MIC90 [18]: 0.125 µg/mL (≈ 0.135 µM)

Compound: Nc1nc(=O)[nH]cc1F [FLUCYTOSINE]
- MIC90 [1, 19]: > 64 µg/mL

Compound: C[C@@H](c1ncncc1F)[C@](O)(Cn1cncn1)c1ccc(F)cc1F [VORICONAZOLE]
- MIC90 [1, 19]: 2 µg/mL (≈ 5.73 µM)

Compound: CC(=O)N1CCN(c2ccc(OCC3COC(Cn4ccnc4)(c4ccc(Cl)cc4Cl)O3)cc2)CC1 (stereo not given) [KETOCONAZOLE]
- MIC90 [1, 19]: > 16 µg/mL

Compound: THIMEROSAL
- MIC50 [2]: 0.0156 µg/mL
- MIC90 [2]: 0.0625 µg/mL
- MIC50 [3]: 0.0625 µg/mL
- MIC90 [3]: 0.0625 µg/mL
- MIC50 [4]: 0.0156 µg/mL
- MIC90 [4]: 0.0313 µg/mL
- MIC50 [1]: 0.0156 µg/mL
- MIC90 [1]: 0.0313 µg/mL
- MIC50 [5]: 0.0625 µg/mL
- MIC90 [5]: 0.0625 µg/mL
- MIC50 [6]: 0.0156 µg/mL
- MIC90 [6]: 0.0313 µg/mL
- MIC50 [7]: 0.0156 µg/mL
- MIC90 [7]: 0.0313 µg/mL
- MIC50 [8]: 0.0156 µg/mL
- MIC90 [8]: 0.0313 µg/mL
- MIC50 [9]: 0.0156 µg/mL
- MIC90 [9]: 0.0313 µg/mL
- MIC50 [10]: 0.0156 µg/mL
- MIC90 [10]: 0.0313 µg/mL
- MIC50 [11]: 0.0156 µg/mL
- MIC90 [11]: 0.0313 µg/mL
- MIC50 [12]: 0.0156 µg/mL
- MIC90 [12]: 0.0313 µg/mL
- MIC50 [13]: 0.0156 µg/mL
- MIC90 [13]: 0.0313 µg/mL
- MIC50 [14]: 0.0313 µg/mL
- MIC90 [14]: 0.0625 µg/mL
- MIC50 [15]: 0.0156 µg/mL
- MIC90 [15]: 0.0313 µg/mL
- MIC50 [16]: 0.0625 µg/mL
- MIC90 [16]: 0.0625 µg/mL
- MIC50 [17]: 0.0156 µg/mL
- MIC90 [17]: 0.0313 µg/mL
- MIC50 [18]: 0.0156 µg/mL
- MIC90 [18]: 0.0313 µg/mL

Compound: CCC(C)n1ncn(-c2ccc(N3CCN(c4ccc(OCC5COC(Cn6cncn6)(c6ccc(Cl)cc6Cl)O5)cc4)CC3)cc2)c1=O (stereo not given) [ITRACONAZOLE]
- MIC90 [1, 19]: > 16 µg/mL

Source: ChEMBL document CHEMBL1212747, “In vitro activity of thimerosal against ocular pathogenic fungi” (2010)
